Measurements published in paper PMC7914897, “Cytotoxic Potential of a-Azepano- and 3-Amino-3,4-SeCo-Triterpenoids” (International Journal of Molecular Sciences, 2021).

What was measured:
[1] = tested on: NCI/ADR-RES (Ovarian cancer); assay: NCI-60 screen (SRB, 48 h); conditions: Homo sapiens
OVCAR-4 (Ovarian cancer) = assay: NCI-60 screen (SRB, 48 h); type: cell-based; conditions: Homo sapiens
HOP-92 (NSC lung cancer) = assay: NCI-60 screen (SRB, 48 h); conditions: Homo sapiens
NSC lung cancer subpanel = assay: NCI-60 screen, subpanel; conditions: Homo sapiens
K-562 (Leukemia) = assay: NCI-60 screen (SRB, 48 h); conditions: Homo sapiens
SF-295 (CNS cancer) = assay: NCI-60 screen (SRB, 48 h); conditions: Homo sapiens
UO-31 (Renal cancer) = assay: NCI-60 screen (SRB, 48 h); conditions: Homo sapiens
A498 (Renal cancer) = assay: NCI-60 screen (SRB, 48 h); conditions: Homo sapiens
UACC-257 (Melanoma) = assay: NCI-60 screen (SRB, 48 h); conditions: Homo sapiens
IGROV1 (Ovarian cancer) = assay: NCI-60 screen (SRB, 48 h); conditions: Homo sapiens
Colon Cancer subpanel = assay: NCI-60 screen, subpanel; conditions: Homo sapiens
SR (Leukemia) = assay: NCI-60 screen (SRB, 48 h); type: cell-based
HCT-116 (Colon cancer) = assay: NCI-60 screen (SRB, 48 h); conditions: Homo sapiens
LOX IMVI (Melanoma) = assay: NCI-60 screen (SRB, 48 h); type: cell-based; conditions: Homo sapiens
HCT-15 (Colon cancer) = assay: NCI-60 screen (SRB, 48 h); conditions: Homo sapiens
[2] = tested on: NCI-H522 (NSC lung cancer); assay: NCI-60 screen (SRB, 48 h); conditions: Homo sapiens
BT-549 (Breast cancer) = assay: NCI-60 screen (SRB, 48 h); type: cell-based; conditions: Homo sapiens
RXF 393 (Renal cancer) = assay: NCI-60 screen (SRB, 48 h); conditions: Homo sapiens
KM12 (Colon cancer) = assay: NCI-60 screen (SRB, 48 h); conditions: Homo sapiens
HT29 (Colon cancer) = assay: NCI-60 screen (SRB, 48 h); conditions: Homo sapiens
DU-145 (Prostate cancer) = assay: NCI-60 screen (SRB, 48 h); conditions: Homo sapiens
T-47D (Breast cancer) = assay: NCI-60 screen (SRB, 48 h); conditions: Homo sapiens, T47D

`CC1(C)CC[C@]23CC[C@]4(C)[C@H](CC[C@@H]5[C@@]6(C)CCCNC(C)(C)[C@@H]6CC[C@]54C)[C@H]2[C@H]1OC3` [Compound 7, Azepanoallobetulin] showed a GI50 [1] of 1.78 µM, an IC (TGI) ([1]; 48 h, read-out: TGI) of 3.59 µM and a GI50 (OVCAR-4 (Ovarian cancer); OVCAR-4) of 1.65 µM. For the same compound, the IC (TGI) (OVCAR-4 (Ovarian cancer); OVCAR-4, 48 h) was 3.12 µM, the CC50 (OVCAR-4 (Ovarian cancer); OVCAR-4, read-out: LC50 (the source's name)) was 5.88 µM and the GI50 (HOP-92 (NSC lung cancer); HOP-92) was 1.41 µM. The IC (TGI) (HOP-92 (NSC lung cancer); HOP-92, 48 h, read-out: TGI) was 2.96 µM, the IC (TGI) (NSC lung cancer subpanel; 48 h, read-out: TGI MG_MID) was 3.28 µM and the GI50 (NSC lung cancer subpanel; read-out: GI50 MG_MID) was 1.49 µM. For the same compound, the CC50 (NSC lung cancer subpanel; read-out: LC50 MG_MID) was 6.73 µM, the GI50 (K-562 (Leukemia); K562) was 1.96 µM and the IC (TGI) (K-562 (Leukemia); K562, 48 h, read-out: TGI) was 7 µM. It also gave a CC50 (K-562 (Leukemia); K562, read-out: LC50) greater than 100 µM, a GI50 (SF-295 (CNS cancer); SF-295) of 1.7 µM and an IC (TGI) (SF-295 (CNS cancer); SF-295, 48 h, read-out: TGI) of 3.19 µM. It also gave a CC50 (SF-295 (CNS cancer); SF-295, read-out: LC50) of 5.99 µM, a GI50 (UO-31 (Renal cancer); UO-31) of 1.56 µM and an IC (TGI) (UO-31 (Renal cancer); UO-31, 48 h, read-out: TGI) of 3 µM. The CC50 (UO-31 (Renal cancer); UO-31, read-out: LC50) was 5.77 µM, the GI50 (A498 (Renal cancer); A498) was 1.68 µM and the IC (TGI) (A498 (Renal cancer); A498, 48 h, read-out: TGI) was 3.67 µM. It also gave a CC50 (A498 (Renal cancer); A498, read-out: LC50) of 8 µM, a GI50 (UACC-257 (Melanoma); UACC-257) of 1.92 µM and an IC (TGI) (UACC-257 (Melanoma); UACC-257, 48 h, read-out: TGI) of 3.89 µM. The CC50 (UACC-257 (Melanoma); UACC-257, read-out: LC50) was 7.77 µM, the GI50 (IGROV1 (Ovarian cancer); IGROV-1) was 1.79 µM and the IC (TGI) (IGROV1 (Ovarian cancer); IGROV-1, 48 h, read-out: TGI) was 3.48 µM. For the same compound, the CC50 (IGROV1 (Ovarian cancer); IGROV-1, read-out: LC50) was 6.78 µM, the IC (TGI) (Colon Cancer subpanel; 48 h, read-out: TGI MG_MID) was 3.11 µM and the GI50 (Colon Cancer subpanel; read-out: GI50 MG_MID) was 1.58 µM. The CC50 (Colon Cancer subpanel; read-out: LC50 MG_MID) was 6.11 µM, the TGI (SR (Leukemia)) was 4.12 µM and the GI50 (SR (Leukemia); Homo sapiens) was 1.49 µM. For the same compound, the CC50 (SR (Leukemia); Homo sapiens, read-out: LC50 (the source's name)) was greater than 100 µM, the GI50 (HCT-116 (Colon cancer); HCT-116) was 1.52 µM and the activity at 10 µM (HCT-116 (Colon cancer); HCT-116, 48 h, read-out: Growth % of the Most Sensitive Cell Lines) was -99.4%. For the same compound, the IC (TGI) (HCT-116 (Colon cancer); HCT-116, 48 h, read-out: TGI) was 2.88 µM, the CC50 (HCT-116 (Colon cancer); HCT-116, read-out: LC50) was 5.47 µM and the IC (TGI) (LOX IMVI (Melanoma); 48 h) was 3.08 µM. For the same compound, the activity at 10 µM (LOX IMVI (Melanoma); 48 h, 1 dose 10 µM, read-out: Growth % of the Most Sensitive Cell Lines) was -94.9%, the GI50 (LOX IMVI (Melanoma); read-out: GI50) was 1.6 µM and the GI50 (HCT-15 (Colon cancer); HCT-15) was 1.31 µM. The IC (TGI) (HCT-15 (Colon cancer); HCT-15, 48 h, read-out: TGI) was 2.68 µM, the CC50 (HCT-15 (Colon cancer); HCT-15, read-out: LC50) was 5.47 µM and the GI50 ([2]; NCI-H522) was 1.9 µM. For the same compound, the IC (TGI) ([2]; NCI-H522, 48 h, read-out: TGI) was 3.77 µM, the CC50 ([2]; NCI-H522, read-out: LC50) was 7.49 µM and the GI50 (BT-549 (Breast cancer); BT-549) was 1.68 µM. The IC (TGI) (BT-549 (Breast cancer); BT-549, 48 h) was 3.24 µM, the GI50 (RXF 393 (Renal cancer); RXF 393) was 1.56 µM and the IC (TGI) (RXF 393 (Renal cancer); RXF 393, 48 h, read-out: TGI) was 2.98 µM. It also gave a CC50 (RXF 393 (Renal cancer); RXF 393, read-out: LC50) of 5.69 µM, a GI50 (KM12 (Colon cancer); KM12) of 1.86 µM and an IC (TGI) (KM12 (Colon cancer); KM12, 48 h, read-out: TGI) of 3.44 µM. The GI50 (HT29 (Colon cancer); HT-29) was 1.78 µM, the IC (TGI) (HT29 (Colon cancer); HT-29, 48 h, read-out: TGI) was 3.63 µM and the CC50 (HT29 (Colon cancer); HT-29, read-out: LC50) was 7.42 µM. For the same compound, the GI50 (DU-145 (Prostate cancer); DU-145) was 1.74 µM, the IC (TGI) (DU-145 (Prostate cancer); DU-145, 48 h, read-out: TGI) was 3.23 µM and the CC50 (DU-145 (Prostate cancer); DU-145, read-out: LC50) was 6 µM. The GI50 (T-47D (Breast cancer)) was 1.71 µM, the IC (TGI) (T-47D (Breast cancer); 48 h, read-out: TGI) was 3.69 µM and the CC50 (T-47D (Breast cancer); read-out: LC50) was 7.99 µM.
